{
  "source": "paper PMC5865150",
  "about": "“Structure and evolution of the Fam20 kinases” (Nature Communications, 2018)",
  "molecules": {"B1": {"name": "ceFam20 (Fam20C ortholog of Caenorhabditis elegans) (enzyme)", "chain": "SLPHQPIPPSLGEKDLSDPFNFLFSSNKITLRKLYDLTKNVDFDQLRQNECKKNITLSKFWEKSEQRNVPEDDNWERFYSNIGSCSVYSDDQMIDNLLHDLNTSPIKHVHIMDGGTQVKFVFTFKNDKQAVFKPMRFGRDYESDPNHFYFSDFERHHAEIATFHLDRVLGFRRAIPTVGRVLNMTTELFEKAEKKLKKTFFFSPAKNFCFVSRCDYYCDTTHAICGLPDMKEGSVQVFLPDESAVPRKHNRSPYRRTYSKKNQVAEWQSSMNYCTDKVKTKRQYAHGRRLLDLVDIHILDYLIGNQDRHHFESFNVFNDLPSYAIHLDHGRAFGRSDFDDDDIILPLRQCCILRPSTFQTLMNFYSTPKSLTKALHESLSKDPAHPILAYKHYPAMERRLAKIMSHILECFESRGVAEVLVAEYNNPDVSDAEQNDEEQSEEHQDKKDDKKTV", "notes": "C. elegans Fam20 (ceFam20)"}, "B2": {"name": "purified human Fam20C (residues 63-584) of the solution studies (domain or fragment, UniProt Q8IXL6 63-584, looked up)", "chain": "VRGRPGEPPAASSAAGDAGWPNKHTLRILQDFSSDPSSNLSSHSLEKLPPAAEPAERALRGRDPGALRPHDPAHRPLLRDPGPRRSESPPGPGGDASLLARLFEHPLYRVAVPPLTEEDVLFNVNSDTRLSPKAAENPDWPHAGAEGAEFLSPGEAAVDSYPNWLKFHIGINRYELYSRHNPAIEALLHDLSSQRITSVAMKSGGTQLKLIMTFQNYGQALFKPMKQTREQETPPDFFYFSDYERHNAEIAAFHLDRILDFRRVPPVAGRMVNMTKEIRDVTRDKKLWRTFFISPANNICFYGECSYYCSTEHALCGKPDQIEGSLAAFLPDLSLAKRKTWRNPWRRSYHKRKKAEWEVDPDYCEEVKQTPPYDSSHRILDVMDMTIFDFLMGNMDRHHYETFEKFGNETFIIHLDNGRGFGKYSHDELSILVPLQQCCRIRKSTYLRLQLLAKEEYKLSLLMAESLRGDQVAPVLYQPHLEALDRRLRVVLKAVRDCVERNGLHSVVDDDLDTEHRAASAR", "notes": "human Fam20C, residues 63-584; otherwise the same construct as m2 and m8; also called WT Fam20C; hsFam20C; source: High Five insect cells (baculovirus), conditioned medium, purified"}, "B3": {"name": "human Fam20A (residues 69-529), untagged (domain or fragment, UniProt Q96MK3 69-529, looked up)", "chain": "HNFSRTEPRTEPAGGSHSGSSSKLQALFAHPLYNVPEEPPLLGAEDSLLASQEALRYYRRKVARWNRRHKMYREQMNLTSLDPPLQLRLEASWVQFHLGINRHGLYSRSSPVVSKLLQDMRHFPTISADYSQDEKALLGACDCTQIVKPSGVHLKLVLRFSDFGKAMFKPMRQQRDEETPVDFFYFIDFQRHNAEIAAFHLDRILDFRRVPPTVGRIVNVTKEILEVTKNEILQSVFFVSPASNVCFFAKCPYMCKTEYAVCGNPHLLEGSLSAFLPSLNLAPRLSVPNPWIRSYTLAGKEEWEVNPLYCDTVKQIYPYNNSQRLLNVIDMAIFDFLIGNMDRHHYEMFTKFGDDGFLIHLDNARGFGRHSHDEISILSPLSQCCMIKKKTLLHLQLLAQADYRLSDVMRESLLEDQLSPVLTEPHLLALDRRLQTILRTVEGCIVAHGQQSVIVDGPVEQ", "notes": "human Fam20A, pseudokinase, residues 69-529; Crystallised and kept with 0.25 mM ATP; also called hsFam20A; source: High Five insect cells (baculovirus), conditioned medium, purified (Ni-NTA, TEV digestion, Resource Q, size exclusion); not shown: His6, N-terminal, cleaved; MBP, N-terminal, cleaved"}, "B4": {"name": "Fam20A E299G/I300S (domain or fragment, human, UniProt Q96MK3 69-529, looked up)", "chain": "B3 chain with E231G, I232S", "notes": "human Fam20A, residues 69-529; The mutations create a site for N-linked glycosylation (Asn298-Gly299-Ser300); The limits are those of the only insect-cell Fam20A construct told in the methods; source: High Five insect cells (baculovirus), conditioned medium, purified as the WT protein"}},
  "key": {"[1]": {"target": "T1, human Fam20A−Fam20C complex (Homo sapiens, UniProt Q96MK3)", "T1 construct": "Fam20A residues 69-529 and Fam20C residues 63-584, High Five cells, His6-MBP tags removed with TEV; heterodimer in crystal; with Extracellular serine/threonine protein kinase FAM20C", "T1 sequence (Q96MK3 69-529)": "B3 chain", "T1 sequence (Q8IXL6 63-584 partner)": "B2 chain", "test": "X-ray crystal structure, […] Å", "type": "binding", "details": "0.25 mM ATP; ATP-1 bound to Fam20A in inverted orientation; ATP-2 bound to Fam20A at a second site, possibly a crystallization artifact"}, "Fam20A−drFam20C complex": {"target": "T2, Fam20A−drFam20C complex (Homo sapiens, UniProt Q96MK3)", "T2 construct": "human Fam20A residues 69-529 with zebrafish Fam20C residues 124-560, High Five cells, His6-MBP tags removed with TEV; heterotetramer; with Extracellular serine/threonine protein kinase FAM20C (Danio rerio)", "T2 sequence (Q96MK3 69-529)": "B3 chain", "T2 sequence (E7FBB8 26-545 partner)": "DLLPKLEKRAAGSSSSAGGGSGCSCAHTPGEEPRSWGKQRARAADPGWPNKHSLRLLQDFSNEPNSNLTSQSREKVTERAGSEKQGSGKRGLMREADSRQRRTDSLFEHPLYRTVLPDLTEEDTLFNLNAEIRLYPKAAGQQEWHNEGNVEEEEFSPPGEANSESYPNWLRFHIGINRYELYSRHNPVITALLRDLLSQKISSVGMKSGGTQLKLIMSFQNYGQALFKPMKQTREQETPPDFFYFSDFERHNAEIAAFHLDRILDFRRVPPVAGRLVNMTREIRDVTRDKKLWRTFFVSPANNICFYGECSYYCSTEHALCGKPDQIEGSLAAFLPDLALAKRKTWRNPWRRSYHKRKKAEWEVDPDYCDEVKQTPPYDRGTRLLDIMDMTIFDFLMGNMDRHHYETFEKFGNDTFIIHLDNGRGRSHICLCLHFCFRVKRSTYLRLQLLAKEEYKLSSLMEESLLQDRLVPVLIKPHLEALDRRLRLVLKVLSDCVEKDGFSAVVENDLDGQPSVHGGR", "test": "X-ray crystal structure, […] Å", "type": "binding", "details": "0.25 mM ATP; ATP-1 bound to Fam20A in inverted orientation"}, "human Fam20B (hsFam20B) [2]": {"target": "T3, human Fam20B (hsFam20B) (Homo sapiens, UniProt O75063, K312R)", "T3 construct": "residues 55-402, His6-MBP fusion secreted from High Five insect cells, Ni-NTA; monomer", "T3 sequence (O75063 55-402 K312R)": "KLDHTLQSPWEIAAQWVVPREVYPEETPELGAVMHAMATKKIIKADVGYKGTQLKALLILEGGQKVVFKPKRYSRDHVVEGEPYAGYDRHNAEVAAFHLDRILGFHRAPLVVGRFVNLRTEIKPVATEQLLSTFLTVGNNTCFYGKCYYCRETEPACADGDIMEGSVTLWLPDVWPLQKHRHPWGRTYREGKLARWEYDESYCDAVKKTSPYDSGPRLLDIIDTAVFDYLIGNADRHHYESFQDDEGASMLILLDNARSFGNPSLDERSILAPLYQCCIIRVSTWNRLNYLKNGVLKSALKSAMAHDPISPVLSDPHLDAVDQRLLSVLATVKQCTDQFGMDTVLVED", "test": "[…] incorporation from [γ-32P]ATP, Sep-Pak C18, scintillation counting", "type": "biochemical", "details": "100 uM Gal-Xyl-benzyl, 100 uM ATP, 10 mM MnCl2, pH 7.5, 30 °C; mutant activity completely abolished"}, "human Fam20B (hsFam20B) [3]": {"target": "T4, human Fam20B (hsFam20B) (Homo sapiens, UniProt O75063)", "T4 construct": "residues 55-402, His6-MBP fusion secreted from High Five insect cells, Ni-NTA; monomer", "T4 sequence (O75063 55-402)": "T3 sequence (O75063 55-402 K312R) with R258K", "test": "[…] incorporation from [γ-32P]ATP, Sep-Pak C18, scintillation counting", "type": "biochemical", "details": "100 uM Gal-Xyl-benzyl, 100 uM ATP, 10 mM MnCl2, pH 7.5, 30 °C"}, "aqFam20": {"target": "T5, aqFam20 (Amphimedon queenslandica, UniProt A0A1X7UVU4)", "T5 construct": "gene 100636703; residues 31-418, His6-MBP fusion secreted from High Five insect cells, cloned from cDNA library; monomer", "T5 sequence (A0A1X7UVU4 entry or part of it)": "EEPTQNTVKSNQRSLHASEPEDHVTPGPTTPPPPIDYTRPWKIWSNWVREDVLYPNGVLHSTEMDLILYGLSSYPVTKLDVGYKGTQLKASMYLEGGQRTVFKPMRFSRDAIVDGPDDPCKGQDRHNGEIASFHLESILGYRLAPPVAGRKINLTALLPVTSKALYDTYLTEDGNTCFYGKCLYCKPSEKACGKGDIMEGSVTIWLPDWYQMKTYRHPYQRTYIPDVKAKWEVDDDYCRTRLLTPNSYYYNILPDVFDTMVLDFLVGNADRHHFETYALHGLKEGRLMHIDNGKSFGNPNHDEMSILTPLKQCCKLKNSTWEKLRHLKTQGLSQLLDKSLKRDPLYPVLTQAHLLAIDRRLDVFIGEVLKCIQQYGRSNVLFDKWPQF", "test": "[…] incorporation from [γ-32P]ATP, Sep-Pak C18, scintillation counting", "type": "biochemical", "details": "100 uM Gal-Xyl-benzyl, 100 uM ATP, 10 mM MnCl2, pH 7.5, 30 °C"}, "hmFam20": {"target": "T6, hmFam20 (Hydra vulgaris, UniProt A0ABM4BCH6)", "T6 construct": "gene LOC100203383; residues 55-415, codon-optimized synthetic gene, High Five cells; for crystals His6-MBP removed with TEV and N-glycans trimmed with endoglycosidase F3; monomer", "T6 sequence (A0ABM4BCH6 entry or part of it)": "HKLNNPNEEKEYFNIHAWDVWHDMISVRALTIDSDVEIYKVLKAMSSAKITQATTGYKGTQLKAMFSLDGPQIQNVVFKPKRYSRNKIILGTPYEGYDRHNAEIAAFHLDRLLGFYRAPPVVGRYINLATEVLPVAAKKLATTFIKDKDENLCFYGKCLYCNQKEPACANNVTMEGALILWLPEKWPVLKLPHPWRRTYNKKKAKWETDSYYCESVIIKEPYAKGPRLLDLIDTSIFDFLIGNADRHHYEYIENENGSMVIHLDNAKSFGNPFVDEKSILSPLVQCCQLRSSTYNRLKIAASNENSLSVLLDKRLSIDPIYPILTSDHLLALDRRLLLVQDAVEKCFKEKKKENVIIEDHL", "test": "X-ray crystal structure, […] Å", "details": "co-crystallised with 2 mM Gal-Xyl-benzyl, 5 mM AMP-PNP, 10 mM MgCl2, pH 6.9; pocket next to the ATP-binding site; also phosphorylated by this enzyme (Figure 5b)"}, "[4]": {"target": "the molecule itself", "test": "not stated; ceFam20 (WT or F260A/P263G) in solution (Supplementary Fig. 3C)"}, "[5]": {"target": "the molecule itself", "test": "AUC; purified Fam20C alone; oligomerises in a concentration-dependent manner; ~1 mg per ml"}, "[6]": {"target": "T7, human Fam20C (residues 63-584), untagged (human, UniProt Q8IXL6 63-584)", "T7 construct": "human Fam20C, residues 63-584; also called hsFam20C; source: High Five insect cells (baculovirus), conditioned medium, purified (Ni-NTA, TEV digestion, Resource Q, size exclusion); not shown: His6, N-terminal, cleaved; MBP, N-terminal, cleaved", "T7 sequence (looked up)": "B2 chain", "test": "crystal structure; human Fam20A-Fam20C complex, formed with 0.25 mM ATP and purified by size exclusion; crystals at 20 °C in 2% 1,4-dioxane, 0.1 M Bicine pH 9.0, 9% PEG 20,000", "details": "both partners purified"}, "[7]": {"target": "B2", "test": "SEC; Fam20A mutants with human Fam20C; tetramer formation followed (Supplementary Fig. 5D)", "details": "both partners purified"}},
  "note": "Residue numbers refer to the chain shown, from its start. Names and notes keep the numbering of the source.",
  "data": [
    {"molecule": "Nc1ncnc2c1ncn2[C@@H]1O[C@H](COP(=O)(O)OP(=O)(O)OP(=O)(O)O)[C@@H](O)[C@H]1O", "note": "[ATP]", "values": [
      {"measurement": "X-ray crystal structure, 3.30 Å", "setting": "[1]", "value": "In both structures, an ATP molecule (ATP-1) is bound to Fam20A in an inverted orientation"},
      {"measurement": "X-ray crystal structure, 3.55 Å", "setting": "Fam20A−drFam20C complex", "value": "In both structures, an ATP molecule (ATP-1) is bound to Fam20A in an inverted orientation"}
    ]},
    {"molecule": "OC[C@H]1O[C@@H](O[C@@H]2CO[C@@H](OCc3ccccc3)[C@H](O)[C@H]2O)[C@H](O)[C@@H](O)[C@H]1O", "note": "[Gal-Xyl, Galβ1-4Xylβ1-O-benzyl]", "values": [
      {"measurement": "32P incorporation from [γ-32P]ATP, Sep-Pak C18, scintillation counting", "setting": "human Fam20B (hsFam20B) [2]", "value": "in human Fam20B (K312R, Fig. 6c) completely abolishes kinase activity"},
      {"measurement": "32P incorporation from [γ-32P]ATP, Sep-Pak C18, scintillation counting", "setting": "human Fam20B (hsFam20B) [3]", "value": "phosphorylate the Gal-Xyl disaccharide with efficiencies similar to human Fam20B (hsFam20B)"},
      {"measurement": "32P incorporation from [γ-32P]ATP, Sep-Pak C18, scintillation counting", "setting": "aqFam20", "value": "sponge (aqFam20) and hydra (hmFam20) phosphorylate the Gal-Xyl disaccharide"},
      {"measurement": "X-ray crystal structure, 2.85 Å", "setting": "hmFam20", "value": "we also determined the structure of hmFam20 in complex with Gal-Xyl"}
    ]},
    {"molecule": "B1", "values": [
      {"measurement": "stoichiometry N", "setting": "[4]", "value": 2}
    ]},
    {"molecule": "B2", "values": [
      {"measurement": "stoichiometry N", "setting": "[5]", "value": 2}
    ]},
    {"molecule": "B3", "values": [
      {"measurement": "binding result", "setting": "[6]", "value": "binds"}
    ]},
    {"molecule": "B4", "values": [
      {"measurement": "binding result", "setting": "[7]", "value": "binds"}
    ]}
  ]
}
